{"source": "patent US4474747A", "about": "“Process for increasing the tolerance of X-ray contrast media, and contrast media obtained thereby” (Guerbet S.A., priority 1981, dated 1984)", "key": {"Rats": {"tested_on": "Rats", "test": "Acute intracisternal toxicity (method of Melartin et al.), rats", "assay_type": "in vivo", "description": "(§1) Acute intracisternal toxicity was determined by the method of E. Melartin, P. Tuohimaa, R. Dabb, Investigative Radiology, 1970, vol. 5, n°1, 13-21."}, "proteins": {"biological_target": "proteins (Homo sapiens, UniProt P02768)", "sequence (P02768 25-609)": "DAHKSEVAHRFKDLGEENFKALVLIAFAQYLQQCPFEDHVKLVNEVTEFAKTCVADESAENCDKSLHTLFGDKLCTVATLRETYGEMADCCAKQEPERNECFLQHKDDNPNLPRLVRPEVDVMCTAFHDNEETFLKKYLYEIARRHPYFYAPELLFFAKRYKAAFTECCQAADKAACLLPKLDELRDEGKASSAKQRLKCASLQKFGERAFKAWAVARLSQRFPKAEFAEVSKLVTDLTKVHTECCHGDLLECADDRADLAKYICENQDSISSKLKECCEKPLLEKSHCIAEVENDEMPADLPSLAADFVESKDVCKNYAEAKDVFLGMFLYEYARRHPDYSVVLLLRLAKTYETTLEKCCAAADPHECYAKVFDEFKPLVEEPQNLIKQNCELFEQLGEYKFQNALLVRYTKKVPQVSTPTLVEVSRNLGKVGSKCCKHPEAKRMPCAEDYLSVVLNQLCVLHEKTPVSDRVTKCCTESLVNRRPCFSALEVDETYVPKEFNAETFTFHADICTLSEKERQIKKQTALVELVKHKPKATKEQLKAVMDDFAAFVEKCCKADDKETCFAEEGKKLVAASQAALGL", "test": "Protein binding, Brodersen technique", "assay_type": "in vitro ADME", "excerpt": "The degree of the interaction with proteins is an index of the tolerance of contrast media. The lower this interaction, the better the tolerance.\nThe protein binding was investigated according to the Brodersen technique (J. of Clinical Investigation, 1974, vol. 4, 1353-1364)."}, "Mice": {"tested_on": "Mice", "test": "Acute intracisternal toxicity (method of Melartin et al.), mice", "assay_type": "in vivo", "description": "as §1"}}}
{"smiles": "CNC(=O)c1c(I)c(NC(C)=O)c(I)c(C(=O)O)c1I", "note": "[Contrix (methylglucamine iothalamate), methylglucamine iothalamate]", "values": [{"measurement": "Acute toxicity IC (DL50) Rats", "setting": "Rats", "result": 0.028, "unit": "mole/rat"}]}
{"smiles": "O=C(CCCCC(=O)Nc1c(I)cc(I)c(C(=O)O)c1I)Nc1c(I)cc(I)c(C(=O)O)c1I", "note": "[Methylglucamine adipiodone]", "values": [{"measurement": "Kd", "setting": "proteins", "result": 0.0781, "unit": "mM"}]}
{"smiles": "CNC(=O)c1c(I)c(C(=O)NCC(=O)Nc2c(I)c(C(=O)O)c(I)c(C(=O)NCCO)c2I)c(I)c(N(C)C(C)=O)c1I", "note": "[Methylglucamine ioxaglate]", "values": [{"measurement": "Kd", "setting": "proteins", "result": 8.2, "unit": "mM"}]}
{"smiles": "CC(=O)Nc1c(I)c(C(=O)O)c(I)c(C(=O)NCCO)c1I", "note": "[Telebrix]", "values": [{"measurement": "Acute toxicity IC (DL50) Mice", "setting": "Mice", "result": 0.2, "unit": "g Eq iodine/kg"}]}
